Reference: patent US9340574B2, “Inhibitors of protein tyrosine phosphatases” (Indiana University Research and Technology Corporation, priority 2012, dated 2016)

Experiments:
[1] = tested on: Foxo1 target genes in mouse primary hepatocytes; assay: Foxo1 target gene expression in mouse primary hepatocytes (real-time PCR); format: cell-based; settings: with insulin, overnight, normalized with Ppia
Method: FIGS. 4A-B depict the ability of PTP-MEG2 inhibitor Compound 7 to sensitize insulin signaling in primary hepatocytes. […] Mouse primary hepatocytes were cultured in 0.5% FBS DMEM medium overnight. Prior to insulin stimulation, the cells were pretreated with Compound 7 or 8 for 1 hour. Then the cells were stimulated with 5 nM insulin for 5 minutes. Insulin signaling was analyzed by Western Blots using phospho-specific antibodies. […] Mouse primary hepatocytes were cultured in DMEM medium plus 0.5% FBS for overnight in the presence or absence of insulin or Compound 7 or 8. Then the cells were harvested for mRNA isolation and gene expression analysis using real-time PCR. The mRNA levels of Foxo1 target genes were normalized with Ppia as an internal control. Data are presented as mean±SEM. *, P<0.05 for Compound 7 vs. DMSO; #, P<0.05 for INS+Compound 7 vs. INS alone.
RNA isolation and real-time PCR. RNA isolation was performed as described previously (Jänne, et al. Nat. Rev. Drug Discov. 2009, 8, 709-723). Real-time RT-PCR was performed in two steps: first, cDNA was synthesized using a cDNA synthesis kit (Applied Biosystems Inc.); second, cDNA was analyzed by real-time PCR using SYBR Green Master Mix (Promega). […]

[2] = Pharmacokinetics in mouse plasma; format: in vivo; settings: for Cmax: mouse plasma
Method: Pharmacokinetic parameters for Compound 7. Compound 7 was quantified in mouse plasma using protein precipitation, internal standardization, and HPLC-MS/MS. Acetone was used to precipitate proteins and Compound 8 was the internal standard. Compound 7 and Compound 8 were separated using a C8 50×4.6 mm 5 um (Restek Ultra) HPLC column and a gradient mobile phase (acetonitrile:5 mM ammonium acetate). Compounds were detected using ESI in positive mode (Thermo Quantum Ultra; Thermo Fisher). The Q1/Q3 for Compound 7 and Compound 8 were 1087/300 and 957/231, respectively. The lower limit of quantification was 100 ng/mL using 20 μL of mouse plasma.
Pharmacokinetic parameters were estimated for Compound 7 after 5 mg/kg intravenous and 20 mg/kg intraperitoneal dosage, respectively. These parameters including area under the curve (AUC), area under the first moment curve (AUMC) and the elimination rate constant, kel, were estimated using noncompartmental methods with add-ins on Excel®. The maximum plasma concentration (Cmax) was obtained from the data. For the intravenous injection, the Cmax was estimated by extrapolating the data to zero time. The terminal half-life, t1/2, was estimated with 0.693/kel. The AUC from the last concentration, Clast, to infinity was estimated by Clast/kel. The systemic clearance (Cl or Cl/F) was calculated with dose/AUC0-∞ and the volume of distribution at steady state (Vdss or Vdss/F) was calculated using the Cl and the mean residence time (MRT; MRT=(Dose/AUC)×(AUMC/AUC)). The bioavailability (F) was estimated by comparing the Cl of intravenous and intraperitoneal injections.

PTPγ = PTPγ (Homo sapiens (Human), UniProt P23470); assay: pNPP hydrolysis enzyme assay, PTPγ; format: biochemical
PTPγ, sequence (P23470 20-1445): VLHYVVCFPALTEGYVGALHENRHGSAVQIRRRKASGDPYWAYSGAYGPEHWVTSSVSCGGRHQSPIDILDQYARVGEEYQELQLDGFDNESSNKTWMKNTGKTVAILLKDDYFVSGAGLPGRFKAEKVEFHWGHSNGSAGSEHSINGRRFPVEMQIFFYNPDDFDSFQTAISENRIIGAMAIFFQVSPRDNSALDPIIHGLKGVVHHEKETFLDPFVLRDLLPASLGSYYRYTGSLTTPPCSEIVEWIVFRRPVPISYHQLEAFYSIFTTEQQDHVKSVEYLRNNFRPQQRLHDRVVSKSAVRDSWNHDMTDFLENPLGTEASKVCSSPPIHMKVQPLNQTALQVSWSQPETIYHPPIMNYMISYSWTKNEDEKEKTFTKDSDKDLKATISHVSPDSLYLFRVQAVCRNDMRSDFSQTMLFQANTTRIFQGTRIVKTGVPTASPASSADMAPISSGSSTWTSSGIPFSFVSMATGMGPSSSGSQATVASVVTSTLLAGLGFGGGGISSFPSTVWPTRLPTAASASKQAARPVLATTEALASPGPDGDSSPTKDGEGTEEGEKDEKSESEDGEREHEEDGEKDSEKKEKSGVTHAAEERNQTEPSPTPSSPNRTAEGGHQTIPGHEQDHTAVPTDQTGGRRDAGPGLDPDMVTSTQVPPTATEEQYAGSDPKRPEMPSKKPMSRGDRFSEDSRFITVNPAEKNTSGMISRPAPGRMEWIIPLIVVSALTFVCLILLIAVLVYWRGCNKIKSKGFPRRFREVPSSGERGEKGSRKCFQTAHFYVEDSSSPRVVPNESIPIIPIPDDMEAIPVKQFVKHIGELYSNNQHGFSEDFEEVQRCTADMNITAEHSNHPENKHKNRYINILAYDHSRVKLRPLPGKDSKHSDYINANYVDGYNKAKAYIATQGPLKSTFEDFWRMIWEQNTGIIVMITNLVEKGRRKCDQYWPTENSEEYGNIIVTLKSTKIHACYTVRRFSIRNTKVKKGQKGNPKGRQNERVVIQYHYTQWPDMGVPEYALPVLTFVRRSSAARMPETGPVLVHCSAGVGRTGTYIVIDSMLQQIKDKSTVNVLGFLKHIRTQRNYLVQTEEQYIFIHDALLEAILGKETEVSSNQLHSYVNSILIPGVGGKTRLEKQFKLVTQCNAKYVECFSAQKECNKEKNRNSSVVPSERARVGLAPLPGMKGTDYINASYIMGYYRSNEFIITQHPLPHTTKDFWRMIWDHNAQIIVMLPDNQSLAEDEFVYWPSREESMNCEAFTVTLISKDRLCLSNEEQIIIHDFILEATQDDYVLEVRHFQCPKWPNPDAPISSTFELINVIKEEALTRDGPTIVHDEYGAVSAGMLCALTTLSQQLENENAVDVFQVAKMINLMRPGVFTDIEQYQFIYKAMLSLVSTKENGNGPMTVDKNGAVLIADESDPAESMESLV
Method: (§1) Enzyme kinetic assay. PTP activity was assayed using p-nitrophenyl phosphate (pNPP) as a substrate in 3,3-dimethylglutarate buffer (50 mM 3,3-dimethylglutarate, pH 7.0, 1 mM EDTA, 150 mM NaCl, 2 mM DTT, 0.1 mg/mL BSA) at 25° C. The assays were performed in 96-well plates. Normally, to determine the IC50 values, the reaction was initiated by the addition of enzyme (final concentration at 10 nM) to a reaction mixture (0.2 mL) containing 2 mM (Km for the substrate) pNPP with various concentrations of inhibitors. The reaction rate was measured using a SpectraMax Plus 384 Microplate Spectrophotometer (Molecular Devices). To determine the mode of inhibition, the reactions were initiated by the addition of PTP-MEG2 to the reaction mixtures (0.2 mL) containing various concentrations of pNPP with different concentrations of the inhibitor 7. Data were fitted using SigmaPlot Enzyme Kinetics Module (Systat Software, Inc.).

VHR = VHR (Homo sapiens (Human), UniProt P51452); assay: pNPP hydrolysis enzyme assay, VHR; format: biochemical
VHR, sequence (P51452 whole entry, species assumed): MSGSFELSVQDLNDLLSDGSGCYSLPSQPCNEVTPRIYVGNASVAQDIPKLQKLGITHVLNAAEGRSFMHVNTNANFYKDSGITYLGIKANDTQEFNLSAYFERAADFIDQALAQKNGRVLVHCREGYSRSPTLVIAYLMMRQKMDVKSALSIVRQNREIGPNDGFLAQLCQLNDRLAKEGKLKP
Method: as §1

[3] = mouse, 20 mg/Kg intraperitoneal injection
[4] = plasma, mouse, 5 mg/Kg intravenous injection

SMILES: COc1cc(CC(=O)NCC(NC(=O)C(CCCNC(=O)c2cccc(I)c2)NC(=O)C(Cc2ccc(C(F)(F)P(=O)(O)O)cc2)NC(=O)c2ccc(C)c(Br)c2)C(N)=O)ccc1O (stereo not drawn) [Compound 7]
- Pdk4, Igfbp1, and G6pc gene expression (Foxo1 transcriptional activity) [1]: synergistic reduction
- Cmax ([2]; ip, 20 mg/Kg intraperitoneal injection): 4.5 µM
- Cmax ([2]; 5 mg/Kg intravenous injection, extrapolated to zero time): 25.7 µM
- Cl/F [2, 3]: 0.047 L/h
- t1/2 [2, 3]: 1.8 h
- half-life ([2]; plasma, ip, mouse, 20 mg/Kg intraperitoneal injection): 1.8 h
- Vd/F ([2]; plasma, ip, mouse, 20 mg/Kg intraperitoneal injection, read-out: Vdss/F): 0.08 L
- clearance [2, 4]: 0.233 mL/min
- half-life [2, 4]: 0.8 h
- Vd ([2]; plasma, mouse, 5 mg/Kg intravenous injection, read-out: Vdss): 0.007 L
- IC50 (PTPγ): > 10000 nM
- IC50 (VHR): > 10000 nM
